25 molecules from patent US9815802B2, “Herbicidally active N-(1-methyltetrazol-5-yl)benzoic acid amides” (BAYER CROPSCIENCE AKTIENGESELLSCHAFT, priority 2014, dated 2017) can be followed below.

Format in all cases: in vivo
For one assay, the system named is Stellaria media. Kind of assay: Pre-emergence herbicidal action against STEME. The following applies: dosage 320 g/ha. The source says: (§1) Pre-Emergence Herbicidal Action Against Harmful Plants
(§2) Seeds of monocotyledonous and dicotyledonous weed plants and crop plants are laid out in wood-fiber pots in sandy loam and covered with soil. The compounds of the invention, formulated in the form of wettable powders (WP) or as emulsion concentrates (EC), are then applied to the surface of the covering soil in the form of an aqueous suspension or emulsion at a water application rate equating to 600 to 800 I/ha, with addition of 0.2% wetting agent. After the treatment, the pots are placed in a greenhouse and kept under good growth conditions for the trial plants. The damage to the test plants is scored visually after a test period of 3 weeks by comparison with untreated controls (herbicidal activity in percent (%): 100% activity=the plants have died, 0% activity=like control plants). For example, compounds no. 1-001, 1-002, 1-003, 1-004, 1-011, 1-012, 1-021, 1-022, 1-031, 1-032, 1-041, 1-042 and 1-044 at an application rate of 320 g/ha each have at least 80% efficacy against Echinocloa crusgalli, Abutilon theophrasti, Amaranthus retroflexus and Matricaria inodora.

The test system of assay [1] is Setaria viridis. Put plainly: Pre-emergence herbicidal action against SETVI. The note with it: dosage 320 g/ha.
Text: as §1, §2

In assay [2] the test system is Avena fatua. Kind of assay: Pre-emergence herbicidal action against AVEFA. The following applies: dosage 320 g/ha.
Text: as §1, §2

For the next assay, the system named is Pharbitis purpureum. Put plainly: Pre-emergence herbicidal action against PHBPU. The note with it: dosage 320 g/ha.
Text: as §1, §2

The subject of assay [3] is Polygonum convolvulus. Kind of assay: Pre-emergence herbicidal action against POLCO. The following applies: dosage 320 g/ha.
Text: as §1, §2

In a further assay the test system is Alopecurus myosuroides. Put plainly: Post-emergence herbicidal action against ALOMY. The protocol: (§3) Post-Emergence Herbicidal Action Against Harmful Plants Seeds of monocotyledonous and dicotyledonous weed and crop plants are laid out in sandy loam in wood-fiber pots, covered with soil and cultivated in a greenhouse under good growth conditions. 2 to 3 weeks after sowing, the test plants are treated at the one-leaf stage. The compounds of the invention, formulated in the form of wettable powders (WP) or as emulsion concentrates (EC), are then sprayed onto the green parts of the plants in the form of an aqueous suspension or emulsion at a water application rate equating to 600 to 800 I/ha, with addition of 0.2% wetting agent. After the test plants have been left to stand in the greenhouse under optimal growth conditions for about 3 weeks, the action of the preparations is assessed visually in comparison to untreated controls (herbicidal action in percent (%): 100% activity=the plants have died, 0% activity=like control plants).

Assay [4] concerns Avena fatua. Kind of assay: Post-emergence herbicidal action against AVEFA. The protocol:
as §3

The test system of assay [5] is Setaria viridis. Put plainly: Post-emergence herbicidal action against SETVI. The note with it: Table T, dosage 80 g/ha. The protocol:
as §3

A further assay relates to Echinochloa crus galli. Put plainly: Post-emergence herbicidal action against ECHCG. The note with it: Table T, dosage 80 g/ha. The method, then:
as §3

For assay [6], the system named is Polygonum convolvulus. Kind of assay: Post-emergence herbicidal action against POLCO. The protocol:
as §3

As for `COSc1c(C)ccc(C(=O)Nc2nnnn2C)c1[N+](=O)[O-]` [4-796], the “Activity against STEME” value in the assay on Stellaria media is 50%. For the same molecule, the “Activity against SETVI” value in the assay on Setaria viridis [1] turned out to be 0%.

For the molecule `Cc1ccc(C(=O)Nc2nnnn2C)c([N+](=O)[O-])c1S(C)(=O)=O` [4-797], the “Activity against AVEFA” value in the assay with Avena fatua [2] was determined as 0%. Further, the “Activity against PHBPU” value with Pharbitis purpureum worked out at 0%.

In the case of `CCOSc1c(C)ccc(C(=O)Nc2nnnn2C)c1[N+](=O)[O-]` [4-799], in the assay with Stellaria media, the “Activity against STEME” value was 70%. In addition, the “Activity against SETVI” value in the assay on Setaria viridis [1] stood at 0%.

`COc1c(C(=O)Nc2nnnn2C)ccc(C)c1S(C)(=O)=O` [4-811]: the “Activity against AVEFA” value in the assay with Avena fatua [2] is reported as 60%. Further, the “Activity against PHBPU” value with Pharbitis purpureum is reported as 70%.

With `CCOSc1c(CC)ccc(C(=O)Nc2nnnn2C)c1CC` [drawing 36], the “Activity against POLCO” value in the assay with Polygonum convolvulus [3] worked out at 100%. Moreover, the “Activity against PHBPU” value with Pharbitis purpureum turned out to be 100%.

As to `CCc1c(C(=O)Nc2nnnn2C)ccc(Cl)c1S(=O)(=O)CC` [drawing 37, reference compound], the “Activity against POLCO” value in the assay with Polygonum convolvulus [3] is 60%. Also, the “Activity against PHBPU” value in the assay on Pharbitis purpureum is on record as 80%.

In the case of `CCOSc1c(C)ccc(C(=O)Nc2nnnn2C)c1[N+](=O)[O-]` [drawing 43, reference compound], in the assay on Alopecurus myosuroides (dosage 80 g/ha), the “Activity against ALOMY” value was 10%. The “Activity against AVEFA” value with Avena fatua [4] (dosage 80 g/ha) is given as 0%.

For `CCS(=O)(=O)c1c(C)ccc(C(=O)Nc2nnnn2C)c1C` [drawing 45], the “Activity against ALOMY” value in the assay on Alopecurus myosuroides (dosage 80 g/ha) was 90%. Further, the “Activity against AVEFA” value in the assay with Avena fatua [4] (dosage 80 g/ha) was 80%.

On to `CCS(=O)(=O)c1c(C)ccc(C(=O)Nc2nnnn2C)c1C` [drawing 46, reference compound], for which the “Activity against ALOMY” value in the assay on Alopecurus myosuroides (dosage 80 g/ha) was determined as 40%. Besides, the “Activity against AVEFA” value with Avena fatua [4] (dosage 80 g/ha) came to 20%.

Consider `CCc1ccc(C(=O)Nc2nnnn2C)c(C)c1S(C)(=O)=O` [drawing 51], for which, in the assay with Alopecurus myosuroides (dosage 5 g/ha), the “Activity against ALOMY” value is recorded as 60%. Besides, in the assay on Avena fatua [4] (dosage 5 g/ha), the “Activity against AVEFA” value is recorded as 80%.

As to `Cc1c(C(=O)Nc2nnnn2C)ccc(S(C)(=O)=O)c1S(C)(=O)=O` [drawing 52, reference compound], in the assay on Alopecurus myosuroides (dosage 5 g/ha), the “Activity against ALOMY” value was found to be 30%. For the same molecule, the “Activity against AVEFA” value with Avena fatua [4] (dosage 5 g/ha) stood at 10%.

Regarding `COSc1c(S(C)(=O)=O)ccc(C(=O)Nc2nnnn2C)c1C` [drawing 55, reference compound], in the assay on Alopecurus myosuroides (dosage 5 g/ha), the “Activity against ALOMY” value came out at 0%. Besides, the “Activity against AVEFA” value with Avena fatua [4] (dosage 5 g/ha) is on record as 0%.

As for `Cc1c(C(=O)Nc2nnnn2C)ccc(S(C)(=O)=O)c1S(C)(=O)=O` [drawing 60], the “Activity against ALOMY” value with Alopecurus myosuroides (Table S, dosage 5 g/ha) was determined as 30%. The “Activity against AVEFA” value with Avena fatua [4] (Table S, dosage 5 g/ha) is 10%.

Take `CCc1c(C(=O)Nc2nnnn2C)ccc(C)c1SOC` [drawing 61]: the “Activity against SETVI” value in the assay with Setaria viridis [5] was found to be 80%. Also, the “Activity against ECHCG” value with Echinochloa crus galli came out at 90%.

For `COSc1c(C)ccc(C(=O)Nc2nnnn2C)c1C` [drawing 62], the “Activity against SETVI” value in the assay on Setaria viridis [5] came out at 20%. In addition, the “Activity against ECHCG” value with Echinochloa crus galli was determined as 40%.

Turning to `CCc1c(C(=O)Nc2nnnn2C)ccc(C)c1SOC` [drawing 67], in the assay with Polygonum convolvulus [6] (Table V, dosage 5 g/ha), the “Activity against POLCO” value was found to be 60%.

In the case of `CCc1c(C(=O)Nc2nnnn2C)ccc(Br)c1SOC` [drawing 69], the “Activity against POLCO” value in the assay on Polygonum convolvulus [6] (Table V, dosage 5 g/ha) amounted to 20%.

`CCc1c(C(=O)Nc2nnnn2C)ccc(C)c1S(C)(=O)=O` [drawing 70]: the “Activity against POLCO” value in the assay with Polygonum convolvulus [6] (Table W, dosage 20 g/ha) was determined as 70%.

Consider `CCc1c(C(=O)Nc2nnnn2C)ccc(Cl)c1S(C)(=O)=O` [drawing 71], for which the “Activity against POLCO” value in the assay with Polygonum convolvulus [6] (Table W, dosage 20 g/ha) was 50%.

For the molecule `CCOSc1c(CC)ccc(C(=O)Nc2nnnn2C)c1CC` [drawing 73], the “Activity against POLCO” value in the assay on Polygonum convolvulus [6] (Table X, dosage 20 g/ha) is given as 60%.

On to `CCc1c(C(=O)Nc2nnnn2C)ccc(Cl)c1S(=O)(=O)CC` [drawing 76], for which, in the assay with Polygonum convolvulus [6] (Table Y, dosage 20 g/ha), the “Activity against POLCO” value amounted to 70%.

On to `CCOSc1c(OC)ccc(C(=O)Nc2nnnn2C)c1C` [reference compound], for which the “Activity against ALOMY” value in the assay on Alopecurus myosuroides (dosage 80 g/ha) is on record as 40%. For the same molecule, the “Activity against AVEFA” value in the assay on Avena fatua [4] (dosage 80 g/ha) is given as 20%.

On to `CCS(=O)(=O)c1c(C)ccc(C(=O)Nc2nnnn2C)c1[N+](=O)[O-]` [reference compound], for which the “Activity against ALOMY” value in the assay with Alopecurus myosuroides (dosage 80 g/ha) amounted to 10%. The “Activity against AVEFA” value in the assay with Avena fatua [4] (dosage 80 g/ha) was found to be 0%.

As to `Cc1c(C(=O)Nc2nnnn2C)ccc(Cl)c1S(C)(=O)=O` [reference compound], the “Activity against ALOMY” value in the assay on Alopecurus myosuroides (dosage 5 g/ha) turned out to be 20%. In addition, the “Activity against AVEFA” value in the assay on Avena fatua [4] (dosage 5 g/ha) came to 20%.

With `COSc1cccc(C(=O)Nc2nnnn2C)c1C` [reference compound], the “Activity against ALOMY” value in the assay with Alopecurus myosuroides (dosage 5 g/ha) is listed as 10%. Also, the “Activity against AVEFA” value with Avena fatua [4] (dosage 5 g/ha) is 20%.
